Measurements reported in US9630961B2, “Arginine methyltransferase inhibitors and uses thereof” (Epizyme, Inc., priority 2013, dated 2017).

Target: T1, PRMT3 (Homo sapiens, UniProt O60678)
T1 construct: GST-tagged PRMT3; made in house; host or cells: E. coli BL21(DE3) Gold
Test: PRMT3 Biochemical Assay (3H-SAM Flashplate, peptide substrate)
Conditions: 30 min preincubation, room temperature
Description: S-adenosylmethionine (SAM), S-adenosylhomocysteine (SAH), bicine, Tween20, dimethylsulfoxide (DMSO), bovine skin gelatin (BSG), isopropyl-β-D-thiogalactopyranoside (IPTG), and Tris(2-carboxyethyl)phosphine hydrochloride solution (TCEP) were purchased from Sigma-Aldrich at the highest level of purity possible. ^3H-SAM was purchase from American Radiolabeled Chemicals with a specific activity of 80 Ci/mmol. 384-well streptavidin Flashplates were purchased from PerkinElmer.
Peptide containing the classic RMT substrate motif was synthesized with an N-terminal linker-affinity tag motif and a C-terminal amide cap by 21st Century Biochemicals. The peptide was purified by high-performance liquid chromatography (HPLC) to greater than 95% purity and confirmed by liquid chromatography mass spectrometry (LC-MS). The sequence was Biot-Ahx-[…]-amide (SEQ ID NO.:11).
Full-length human PRMT3 (NM_005788.3) isoform 1 transcript clone was amplified from an HEK 293 cDNA library and subcloned into pGEX-KG (GE Life Sciences). The resulting construct encodes an N-terminal GST tag and a thrombin cleavage sequence ([…] […] […] […]) (SEQ ID NO.: 12) fused directly to Cys 2 of PRMT3.
E. coli (BL21(DE3) Gold, Stratagene) made competent by the CaCl2 method were transformed with the PRMT3 construct and ampicillin selection. Protein over-expression was accomplished by growing the PRMT3 expressing E. coli clone and inducing expression with 0.3 mM IPTG at 16° C. The culture was grown for 12 hours, harvested by centrifugation, and stored at −80° C. for purification.
GST-tagged PRMT3 eluted with 25-400 mM phosphate in buffer C. Protein was concentrated and buffer was exchanged to 20 mM Tris, 150 mM NaCl, 5% glycerol, 5 mM β-mercaptoethanol, pH7.8 by ultrafiltration. The purity of recovered protein was 70%.
General Procedure for PRMT3 Enzyme Assays on Peptide Substrates.
The assays were all performed in a buffer consisting of 20 mM Bicine (pH=7.6), 1 mM TCEP, 0.005% BSG, and 0.002% Tween 20, prepared on the day of use. Compounds in 100% DMSO (1 ul) were spotted into a polypropylene 384-well V-bottom plates (Greiner) using a Platemate Plus outfitted with a 384-channel head (Thermo Scientific). DMSO (1 ul) was added to Columns 11, 12, 23, 24, rows A-H for the maximum signal control and 1 ul of SAH, a known product and inhibitor of PRMT3, was added to columns 11, 12, 23, 24, rows I-P for the minimum signal control. A cocktail (40 ul) containing the PRMT3 enzyme was added by Multidrop Combi (Thermo-Fisher). The compounds were allowed to incubate with PRMT3 for 30 min at room temperature, then a cocktail (10 ul) containing SAM and peptide was added to initiate the reaction (final volume=51 ul). The final concentrations of the components were as follows: PRMT3 was 0.5 nM, ^3H-SAM was 100 nM, non-radiolabeled SAM was 1.8 uM, peptide was 330 nM, SAH in the minimum signal control wells was 1 mM, and the DMSO concentration was 2%. The assays were stopped by the addition of potassium chloride (10 ul) to a final concentration of 100 mM. 50 ul of the reaction in the 384-well polypropylene plate was then transferred to a 384-well Flashplate and the biotinylated peptides were allowed to bind to the streptavidin surface for at least 1 hour before being washed once with 0.1% Tween20 in a Biotek ELx405 plate washer. The plates were then read in a PerkinElmer TopCount plate reader to measure the quantity of ^3H-labeled peptide bound to the Flashplate surface, measured as disintegrations per minute (dpm) or alternatively, referred to as counts per minute (cpm).
Where dpm=disintegrations per minute, cmpd=signal in assay well, and min and max are the respective minimum and maximum signal controls.
Where top and bottom are the normally allowed to float, but may be fixed at 100 or 0 respectively in a 3-parameter fit. The Hill Coefficient normally allowed to float but may also be fixed at 1 in a 3-parameter fit. […]

T1 sequence (O60678 with tags, fused parts or gaps): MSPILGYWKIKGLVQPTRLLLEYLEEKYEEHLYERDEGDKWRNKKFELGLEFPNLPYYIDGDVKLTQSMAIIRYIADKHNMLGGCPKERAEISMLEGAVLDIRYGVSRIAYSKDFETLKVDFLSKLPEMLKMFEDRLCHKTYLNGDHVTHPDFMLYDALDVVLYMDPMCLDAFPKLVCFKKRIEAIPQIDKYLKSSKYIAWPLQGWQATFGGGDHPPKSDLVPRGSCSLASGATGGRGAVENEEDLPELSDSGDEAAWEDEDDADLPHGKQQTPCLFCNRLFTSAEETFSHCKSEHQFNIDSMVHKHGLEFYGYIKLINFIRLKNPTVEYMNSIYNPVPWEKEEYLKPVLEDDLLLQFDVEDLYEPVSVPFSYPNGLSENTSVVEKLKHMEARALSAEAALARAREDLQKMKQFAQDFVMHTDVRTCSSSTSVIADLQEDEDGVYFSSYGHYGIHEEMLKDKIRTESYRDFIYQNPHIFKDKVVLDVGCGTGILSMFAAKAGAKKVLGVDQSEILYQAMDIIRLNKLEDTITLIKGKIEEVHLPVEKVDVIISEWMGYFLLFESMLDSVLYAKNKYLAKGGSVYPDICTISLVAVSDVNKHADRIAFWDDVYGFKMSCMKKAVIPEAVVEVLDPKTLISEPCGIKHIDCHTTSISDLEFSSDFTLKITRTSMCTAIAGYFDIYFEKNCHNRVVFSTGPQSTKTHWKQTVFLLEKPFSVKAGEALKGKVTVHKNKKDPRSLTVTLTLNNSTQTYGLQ

SMILES	IC50 [µM]
CN(CCN)Cc1c[nH]nc1-c1ccsc1 [Compound 3]	3.01 to 10
CN(CCN)Cc1c[nH]nc1-c1cncnc1 [Compound 4]	≥ 10
CN(CCN)Cc1c[nH]nc1-c1cccs1 [Compound 5]	≥ 10
CN(CCN)Cc1c[nH]nc1-c1ccco1 [Compound 6]	3.01 to 10
CN(CCN)Cc1c[nH]nc1-c1ccoc1 [Compound 7]	≥ 10
Cc1noc(C)c1-c1n[nH]cc1CN(C)CCN [Compound 10]	≥ 10
COc1ncc(-c2n[nH]cc2CN(C)CCN)cn1 [Compound 11]	≥ 10
CN(CCN)Cc1c[nH]nc1-c1cc[nH]n1 [Compound 14]	≥ 10
CN(CCN)Cc1c[nH]nc1-c1cnn(-c2ccccc2)c1 [Compound 17]	3.01 to 10
CC(C)n1cc(-c2n[nH]cc2CN(C)CCN)cn1 [Compound 22]	3.01 to 10
CC(C)Cn1cc(-c2n[nH]cc2CN(C)CCN)cn1 [Compound 23, N^1-((2′-isobutyl-3,4′-bi(1H-pyrazol)-4-yl)methyl)-N^1-methylethane-1,2-diamine]	3.01 to 10
CN(CCN)Cc1c[nH]nc1-c1cnn(Cc2ccccc2)c1 [Compound 24, N^1-((1′-benzyl-3,4′-bi(1H-pyrazol)-4-yl)methyl)-N^1-methylethane-1,2-diamine]	3.01 to 10

More lines, now with the values ahead:

IC50 [µM]	SMILES
≥ 10	CN(CCN)Cc1c[nH]nc1-c1cnn(C)c1 [Compound 8]
3.01 to 10	CN(CCN)Cc1c[nH]nc1-c1ccc2scnc2c1 [Compound 9]
≥ 10	CN(CCN)Cc1c[nH]nc1-c1cn[nH]c1 [Compound 12]
1.01 to 3	CN(CCN)Cc1c[nH]nc1-c1cnc2[nH]ccc2c1 [Compound 13]
≥ 10	CN(CCN)Cc1c[nH]nc1-c1ccnn1C [Compound 15]
3.01 to 10	CCn1cc(-c2n[nH]cc2CN(C)CCN)cn1 [Compound 16]
≥ 10	CN(CCN)Cc1c[nH]nc1-c1cnn(CCO)c1 [Compound 18]
3.01 to 10	CN(CCN)Cc1c[nH]nc1-c1ccc2cnn(C)c2c1 [Compound 19, N^1-methyl-N^1-((3-(1-methyl-1H-indazol-6-yl)-1H-pyrazol-4-yl)methyl)ethane-1,2-diamine]
3.01 to 10	CN(CCN)Cc1c[nH]nc1-c1ccc2ncnn2c1 [Compound 20]
3.01 to 10	CN(CCN)Cc1c[nH]nc1-c1ccc2nccn2c1 [Compound 21, N^1-((3-(imidazo[1,2-a]pyridin-6-yl)-1H-pyrazol-4-yl)methyl)-N^1-methylethane-1,2-diamine]
